Publication PMC6852045 (International Journal of Cosmetic Science, 2019)

Molecular target: T1, peroxisome proliferator-activated receptor-α (PPARα) (Homo sapiens, UniProt Q07869)
T1 sequence (Q07869 196-468 limits assumed): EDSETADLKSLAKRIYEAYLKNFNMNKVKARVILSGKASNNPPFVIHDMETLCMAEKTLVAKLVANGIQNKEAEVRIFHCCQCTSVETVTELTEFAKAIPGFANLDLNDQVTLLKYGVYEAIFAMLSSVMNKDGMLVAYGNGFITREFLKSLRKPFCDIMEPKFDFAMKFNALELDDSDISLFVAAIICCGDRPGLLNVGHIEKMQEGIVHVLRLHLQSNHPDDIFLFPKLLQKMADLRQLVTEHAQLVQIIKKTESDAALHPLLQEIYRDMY
Test: GAL4-PPARα LBD one-hybrid luciferase transactivation assay in HEK293 cells
Type: cell-based

EC50: 5.43 µM
Compound: CCCCCCCC[C@@H](O)CCCCCCCCC(=O)O [HSA, (R)‐10‐hydroxyoctadecanoic acid]
